For data set [1], the system named is CAL-27 cells. Description: MTT cell viability assay. The conditions noted are these: 24 and 48 hr. Format: cell-based, human. The protocol: The cytotoxicity of chemotherapeutic drugs to CAL-27 cells was determined using the MTT assay. Cells were plated in 96-well plate in density of 50,000 cells per well in a total volume of 200 μl medium. After 24 hours the cells were treated with different drugs and liposomes for 24 h and 48 h. All experiments were done in quadruplicates.
Cell viability was evaluated by MTT assay, a colorimetric assay based on the ability of viable cells to reduce a soluble yellow MTT substrate to a blue formazan crystal by mitochondrial succinate dehydrogenase activity of viable cells. This test is a good index of mitochondrial activity and thus of cell viability. After 24 or 48 hr of treatment, the medium was aspirated, and 100 μL of MTT, 1 mg/mL in PBS were added to each well. After MTT addition the plates were covered and returned to the incubator at 37° C. for 2 hr, the optimal time for formazan product formation. […] The absorbance was measured at 570 nm and the background absorbance measured at 690 nm.
In exemplary procedures, alginate gels incorporating either empty or doxorubicin loaded liposomes were prepared as described above, in a volume of 100 μL each with liposome proportion of 6.7%, 16.7% and 33.3% (v/v). […] Viability was measured using the MTT assay. […]

In data set [2] the test system is CAL-27 cells. In words: CellTiter-Glo viability, alginate pastes on permeable tissue culture inserts. It is filed as cell-based, human. As to conditions: alginate paste hybrid system. The protocol: In order to examine the effectivity of the proposed hybrid system, alginate pastes with empty liposomes, free drug and drugs loaded liposomes were tested for their effect on CAL-27 cells using permeable tissue culture inserts. Cell viability was determined using the Cell Titer-Glo® assay (see Table 6 below showing the relative cell viability obtained after 24 and 48 hr of treatment with hybrid system and FIG. 25).

Data set [3] in a line: Liposome release from alginate pastes spread on tongue tissue. Format: physicochemical. The conditions noted are these: 3% Ca+2-Ba+2 cross-linked alginate paste, simulated saliva buffer pH 6.8, 37° C. The protocol:
Alginate-fluorescein containing liposomes pastes were prepared by dissolving 30, 40 or 50 mg alginate-fluorescein in 0.4 mL DDW and 0.6 mL of fluorescently labeled liposome solution. The mixtures were stirred until homogenous viscous solutions were achieved. Alginate-fluorescein paste (50 μL) was spread on porcine's tongue tissue (1 cm×1 cm) which was glued with cyanoacrylate glue to a weight and placed in a vail with […] saliva buffer, pH 6.8. One sample (paste on a tissue) was inserted into dialysis bag and the absorbance of this sample was used as a blank. The vail was immersed in a shaking water/ethylene-glycole bath at 37° C. and 25 rpm. An aliquot (200 μL) of eluted liposome medium was removed for quantification; this volume was replaced with fresh buffer. The release of alginate-fluorescein and liposome was quantified by measuring the fluorescence (alginate-fluorescein: λex420 nm, λem530 nm, labeled liposome: λex530 nm, […]) of the release media at different time points.
pastes were prepared by dissolving 40 mg alginate or alginate-SH, or 300 mg alginate-PEGAc.
Alginate paste (50 μL) was spread on a piece of tissue which was glued with cyanoacrylte glue to a weight and placed in a vail with 10 ml 0.01M PBS, pH=6.8. […] An aliquot (200 μL) of eluted liposome medium was removed for quantification; this volume was replaced with fresh buffer. […]

Data set [4] in a line: Release of fluorescent dye from alginate paste on porcine tongue under shear flow. Format: physicochemical. The conditions noted are these: after two hours, 0.01M PBS pH 6.8, 37° C. From the text:
A home-made apparatus was designed, based on a flow cell for assessing the mucoadhesion of pastes and viscous polymer solutions under shear flow conditions. The experiment was set up by mixing viscous solution of alginate with the fluorescent dye solution, by that, the fluorescent dye was non-covalently attached to alginate. The pastes were spread on a slice of porcine tongue simulating the target tissue. The tissue holding the paste was placed in a vial and was subject to shear flow while immersed in PBS solution (see FIG. 1A).

Regarding `O=c1[nH]cc(F)c(=O)[nH]1` [5-FU free drug, 5-fluorouracil], the “Toxicity to cancer cells, drug loaded liposomes versus free drug” value in data set [1] is “slower in action and therefore seemed less efficient within the 48 hr experiment”.

Turning to `COc1cccc2c1C(=O)c1c(O)c3c(c(O)c1C2=O)C[C@@](O)(C(=O)CO)C[C@@H]3O[C@H]1C[C@H](N)[C@H](O)[C@H](C)O1` [Free Doxorubicin, doxorubicin], the “Relative cell viability 24 h” value in data set [2] (24 h) was 0.04 ± 0.008. Further, the “Relative cell viability 48 h” value in data set [2] (48 h) was 0.00 ± 0.000. The “Release of doxorubicin from cross-linked pastes” value in data set [3] was “similar, and sustained”.

With `CCN(CC)c1ccc2c(-c3ccc(S(=O)(=O)O)cc3S(=O)(=O)[O-])c3ccc(=[N+](CC)CC)cc-3oc2c1` [fluorescent marker, sulforhodamine B], in data set [4], the “Release of fluorescent marker to external PBS solution” value was “completely released”.

The values above are taken from patent publication US11096891B2, “Hybrid muco-adhesive delivery systems and use thereof” (TECHNION RESEARCH & DEVELOPMENT FOUNDATION LIMITED, priority 2016, dated 2021).
